PMC10600239, “Selective MCL-1 inhibitor ABBV-467 is efficacious in tumor models but is associated with cardiac troponin increases in patients” (Communications Medicine, 2023)
Several values for one entry are separate records, joined by “and”; a condition that tells them apart may be missing. Identical values can stand only once.

Tested on: OPM-2 xenografts
Assay: OPM-2 xenograft efficacy (tumor volume, body weight)
Assay type: in vivo, mouse
Details: for Tumor Volume (mm³) Day 27, Mean: group mean; for Tumor Volume (mm³) Day 27, Median: group median; for Tumor Volume (mm³) Day 27 / Tumor Volume (mm³) Day 30 / Tumor Volume (mm³) Day 34: individual animals; for Tumor Volume (mm³) Day 23 (individual animals) / Tumor Volume Day 23, Mean / Tumor Volume Day 23, Median / % T/C (mean) / % T/C (median): Day 23
Experimental: All animal studies were conducted in accordance with the guidelines approved by the Institutional Animal Care and Use Committees of AbbVie. The research protocol was approved by In Vivo Pharmacology at AbbVie prior to study initiation but was not publicly registered or disclosed. Female C.B-17 SCID-beige mice (AMO-1, OPM-2, NCI-H929, and OCI-AML2 xenografts) and female NSG mice (MV4-11-Red.Fluc systemic) were purchased from Charles River Laboratories (Wilmington, MA). Animals were housed in a light cycle-controlled room with HEPA filtration at 22 °C. Animals had nesting and climbing cage topper as the primary environmental enrichment. Animals were inoculated subcutaneously in the right flank with 5 × 10^6 (AMO-1, OPM-2, NCI-H929, and OCI-AML2) or intravenous (IV) with 5 × 10^6 (MV4-11-Red.Fluc). The inoculation volume (0.2 mL) comprised a 50:50 mixture of cells in growth media and Matrigel (BD Biosciences) for subcutaneous injections and 100% phosphate-buffered saline for IV administration. All cell lines used in this publication were authenticated using IDEXX for STR profiling as well as their IMPACT and human IMPACT panels for pathogen screening. Electronic calipers were used to measure the length and width of each tumor 2 to 3 times per week. Tumor volume was estimated by applying the following equation: volume = length × width^2/2. All groups remained blinded during measurements and dosing; only veterinary staff were aware of group identity. When tumors reached approximately 200 mm^3, mice were randomized by match and distributed into treatment and control groups. All xenograft trials were conducted using 5 to 10 mice per group, and all mice were ear tagged and monitored individually throughout the studies. Any animal with a tumor above 2000 mm^3 or 15% loss in body weight was euthanized and removed from the study. Tumor burden in the systemic MV4-11-Red.Fluc experiment was measured using an IVIS® spectrum from PerkinElmer by taking the total photon flux of the entire dorsal side of an individual mouse. Ten minutes prior to imaging, animals received intraperitoneally 0.2 mL of a 15-mg/mL solution of D-Luciferin (PerkinElmer, Catalog #122799) formulated in 100% phosphate-buffered saline. Animals were anesthetized using 3.5% isoflurane and maintained using 2%. Six days after inoculation, animals were imaged and randomized into vehicle and treatment groups at a total flux of ~1 × 10^8. A background control mouse that was tumor naive but received D-Luciferin was placed in the upper left corner of each image. The total flux from this animal was subtracted from the total flux of each animal present in the image.
For in vivo studies, maximal tumor growth inhibition (TGI) was calculated as the greatest treatment response using the following equation: Maximal TGI = (1 − mean tumor volume of the treated group/mean tumor volume of the vehicle control group) × 100. The tumor growth delay (TGD) percentage was determined as the percentage increase of the median time period for the treatment group to reach an arbitrary tumor volume of 1000 mm^3 relative to the vehicle control group. […] A power analysis was conducted using historical data to determine the number of animals required to yield significance of 0.05 at a 30% difference. There were no animals excluded. Data from experiments in vivo were analyzed using the student’s t-test for TGI values and the Mann–Whitney U test for TGD using Excel and GraphPad Prism. Fisher’s exact test was used to probe significance of differences in response frequency.

[1] = 6.25 mg/kg q7dx3 IV, mean(T)/mean(C)
[2] = 6.25 mg/kg q7dx3 IV, median(T)/median(C)
[3] = 6.25 mg/kg q7dx3 IV, SCID-beige mice
[4] = 6.25 mg/kg q7dx3 IV, OPM-2 (DSMZ) xenograft, SCID-beige mice
[5] = 25 mg/kg q7dx3 IV, mean(T)/mean(C)
[6] = 25 mg/kg q7dx3 IV, median(T)/median(C)
[7] = 25 mg/kg q7dx3 IV, SCID-beige mice
[8] = 25 mg/kg q7dx3 IV, OPM-2 (DSMZ) xenograft, SCID-beige mice
[9] = OPM-2 (DSMZ) xenograft, SCID-beige mice, 6.25 mg/kg q7dx3 IV
[10] = OPM-2 (DSMZ) xenograft, SCID-beige mice, 25 mg/kg q7dx3 IV

## Cc1c(Cl)c2c(Cl)c(C)c1-c1c(-c3ccc(F)cc3)sc3ncnc(c13)O[C@@H](C(=O)O)Cc1cc(ccc1OCc1ccnc(-c3ccc(OC[C@H]4COCCO4)cc3)n1)OC[C@@H](CN1CCN(C)CC1)O2 [Compound A-1747745]
6.25 mg/kg IV q7dx3, clinical observation, SCID-beige mice, OPM-2 (DSMZ) xenograft
  % Mortality: 100.00%
6.25 mg/kg q7dx3 IV
  Tumor Volume (mm³) Day 27, Mean: 468.28 mm³
  Tumor Volume (mm³) Day 27, Median: 424.66 mm³
  Tumor Volume (mm³) Day 27: 369 mm³ and 671 mm³ and 322 mm³ and 348 mm³ and 352 mm³ and 673 mm³ and 481 mm³ and 531 mm³
  % T/C (mean), Tumor Volume Day 30: 42.91%
  % T/C (median), Tumor Volume Day 30: 42.72%
  Tumor Volume Day 30, Mean: 634.52 mm³
  Tumor Volume Day 30, Median: 618.80 mm³
  Tumor Volume Day 34, Mean: 930.42 mm³
  Tumor Volume Day 34, Median: 940.62 mm³
[1]
  Body Weight Day 27, % T/C (mean): 97.79%
  Tumor Volume Day 27, % T/C (mean): 49.20%
[2]
  Body Weight Day 27, % T/C (median): 97.79%
  Tumor Volume Day 27, % T/C (median): 41.20%
[3]
  Tumor Volume (mm³) Day 30: 375 mm³ and 897 mm³ and 567 mm³ and 528 mm³ and 560 mm³ and 806 mm³ and 673 mm³ and 670 mm³
  Tumor Volume (mm³) Day 34: 591 mm³ and 1061 mm³ and 690 mm³ and 703 mm³ and 1071 mm³ and 821 mm³ and 1142 mm³ and 1365 mm³
[4]
  Tumor Volume (mm³) Day 23 (individual animals): 264 mm³ and 376 mm³ and 277 mm³ (2×) and 196 mm³ and 349 mm³ and 392 mm³ and 253 mm³
  Tumor Volume Day 23, Mean: 298.00 mm³
  Tumor Volume Day 23, Median: 276.63 mm³
6.25 mg/kg q7dx3 IV, OPM-2 (DSMZ) xenograft, mean(T)/mean(C)
  % T/C (mean): 68.08%
6.25 mg/kg q7dx3 IV, OPM-2 (DSMZ) xenograft, median(T)/median(C)
  % T/C (median): 67.57%
25 mg/kg IV q7dx3, clinical observation, SCID-beige mice, OPM-2 (DSMZ) xenograft
  % Mortality: 0.00%
25 mg/kg IV q7dx3, day 27, clinical observation
  % BW Loss: -2% (day 27)
25 mg/kg q7dx3 IV
  Tumor Volume (mm³) Day 27, Mean: 75.56 mm³
  Tumor Volume (mm³) Day 27, Median: 79.55 mm³
  Tumor Volume (mm³) Day 27: 109 mm³ and 83 mm³ and 115 mm³ and 60 mm³ and 69 mm³ and 4 mm³ and 77 mm³ and 88 mm³
  % T/C (mean), Tumor Volume Day 30: 2.78%
  % T/C (median), Tumor Volume Day 30: 0.28%
  Tumor Volume Day 30, Mean: 41.06 mm³
  Tumor Volume Day 30, Median: 4.00 mm³
  Tumor Volume Day 34, Mean: 4.00 mm³
  Tumor Volume Day 34, Median: 4.00 mm³
[5]
  Body Weight Day 27, % T/C (mean): 101.28%
  Tumor Volume Day 27, % T/C (mean): 7.94%
[6]
  Body Weight Day 27, % T/C (median): 101.28%
  Tumor Volume Day 27, % T/C (median): 7.72%
[7]
  Tumor Volume (mm³) Day 30: 135 mm³ and 4 mm³ (5×) and 87 mm³ (2×)
  Tumor Volume (mm³) Day 34: 4 mm³
[8]
  Tumor Volume (mm³) Day 23 (individual animals): 275 mm³ and 201 mm³ and 232 mm³ and 269 mm³ and 236 mm³ and 126 mm³ and 388 mm³ and 205 mm³
  Tumor Volume Day 23, Mean: 241.42 mm³
  Tumor Volume Day 23, Median: 233.81 mm³
25 mg/kg q7dx3 IV, OPM-2 (DSMZ) xenograft, mean(T)/mean(C)
  % T/C (mean): 55.16%
25 mg/kg q7dx3 IV, OPM-2 (DSMZ) xenograft, median(T)/median(C)
  % T/C (median): 57.11%
[9]
  Tumor Volume Day 20, Mean: 237.41 mm³
  Tumor Volume Day 20, Median: 234.06 mm³
OPM-2 (DSMZ) xenograft, SCID-beige mice, 6.25 mg/kg q7dx3 IV, 6.25 mg/kg
  Tumor Volume (mm³) Day 20, individual animals: 217 mm³ and 238 mm³ and 188 mm³ and 184 mm³ and 290 mm³ and 300 mm³ and 252 mm³ and 230 mm³
OPM-2 (DSMZ) xenograft, SCID-beige mice, 6.25 mg/kg q7dx3 IV, mean(T)/mean(C)
  Tumor Volume Day 20, % T/C (mean): 99.97%
OPM-2 (DSMZ) xenograft, SCID-beige mice, 6.25 mg/kg q7dx3 IV, median(T)/median(C)
  Tumor Volume Day 20, % T/C (median): 101.50%
OPM-2 (DSMZ) xenograft, SCID-beige mice, 6.25 mg/kg q7dx3 IV, Day 21, mean(T)/mean(C)
  Body Weight Day 21, % T/C (mean): 100.00%
OPM-2 (DSMZ) xenograft, SCID-beige mice, 6.25 mg/kg q7dx3 IV, Day 21, median(T)/median(C)
  Body Weight Day 21, % T/C (median): 100.00%
[10]
  Tumor Volume Day 20, Mean: 237.54 mm³
  Tumor Volume Day 20, Median: 238.03 mm³
OPM-2 (DSMZ) xenograft, SCID-beige mice, 25 mg/kg q7dx3 IV, 25 mg/kg
  Tumor Volume (mm³) Day 20, individual animals: 283 mm³ and 220 mm³ and 249 mm³ and 228 mm³ and 248 mm³ and 178 mm³ and 301 mm³ and 193 mm³
OPM-2 (DSMZ) xenograft, SCID-beige mice, 25 mg/kg q7dx3 IV, mean(T)/mean(C)
  Tumor Volume Day 20, % T/C (mean): 100.03%
OPM-2 (DSMZ) xenograft, SCID-beige mice, 25 mg/kg q7dx3 IV, median(T)/median(C)
  Tumor Volume Day 20, % T/C (median): 103.23%
